Test results reported in patent US9120839B2, “Ursolic acid derivative and method for preparing same” (Nexoligo Co., Ltd., priority 2012, dated 2015).
Read-outs that look alike come from different tables or passages of the source.

Legend:
[1] = background statement on ursolic acid; cited from earlier work
[2] = Pharmacokinetic animal test on Sprague Dawley (SD) rat, ursolic acid concentration in blood plasma; format: in vivo; details: male, intravenous administration, dose 0.5 (mg/kg per Table 1), SD rats
Description: Pharmacokinetic Animal Test on Sprague Dawley (SD) Rat, Using Ursolic Acid and Ursolic Acid Derivatives of Examples
• Ursolic acid derivative of Examples (5-methyl-2-oxo-1,3-dioxole-4-yl)methyl 3β-hydroxyl-urs-12-en-28-oate was used.
The ursolic acid was single-intravenously administered on SD rats and the ursolic acid derivative of Example 2 was orally administered, then blood collection was performed each time, and concentration of the test substance in blood was analyzed. Accordingly, bioavailability of the ursolic acid and ursolic acid derivatives of Examples were measured and compared with each other.
i) Control substance (Intravenous Administration): Ursolic Acid (UA) (HPLC purity of 99.0% or more/area percentage)
ii) Test substance (Oral Administration) Ursolic acid derivative of Example 2 (HPLC purity of 99.4% or more/area percentage)
The control substance for intravenous administration was diluted with 0.9% saline which was sterilized and sealed to be prepared in 0.5 mg/mL. […]
(3) Calculation of Injection Amount: The injection amount was calculated to be 1.0 or 2.0 mL/kg, on the basis of the recently measured body weight before the administration. […]
Concentration of ursolic acid in the blood plasma of the rats was measured. […]

[3] = rats, from Paper 1; cited from earlier work

| AUC(0-t) [2] [ng·h/mL] | Cmax [2] [ng/mL] | Structure (SMILES) | oral absorptivity [1] | oral absorptivity [3] |
| --- | --- | --- | --- | --- |
| 114 | 378 | C[C@H]1[C@H](C)CC[C@]2(C(=O)O)CC[C@]3(C)C(=CC[C@@H]4[C@@]5(C)CC[C@H](O)C(C)(C)[C@@H]5CC[C@]43C)[C@H]12 [Ursolic Acid, 3β-hydroxy-urs-12-en-28-oic acid] | less than 1% | – |
| – | – | CC1(C)CC[C@]2(C(=O)O)CC[C@]3(C)C(=CC[C@@H]4[C@@]5(C)CC[C@H](O)C(C)(C)[C@@H]5CC[C@]43C)[C@@H]2C1 [oleanolic acid] | – | about 0.7% |
